Residues, ends and D or L forms follow the SMILES beside them. *: point of attachment. Cbz = O=C(OCc1ccccc1)*

For one test, the system named is SMN. As to the kind of experiment: High-content fibroblast screen for compounds that modulate SMN level.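 Further: Anti-SMN immunostaining with confocal imaging of nuclear and cytoplasmic SMN and gem counts, tested at 0.1, 1 and 10 uM, fold change relative to negative control wells on each plate.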 The following applies: during screening.
Description: Human fibroblasts were incubated for 2-3 days with compounds from annotated collections. Cells were fixed and stained with an anti-SMN antibody. Confocal imaging was used to quantify SMN fluorescence in nucleus and cytoplasm and count Gems. Data were collected and subsequently analyzed by clustering compounds by suspected mechanism of action and chemical structure.
Following optimization of assay conditions on day 0, total of 500 human fibroblasts (GM09677 line) per well were seeded in 384-well plates, on day 3 they were treated with compounds (robot CyBio) from the annotated collections and on the 5 day plates were fixed and stained (robot MAPD) with an anti-SMN antibody and secondary antibody conjugated with 448 fluorophore (FIG. 19a). Compounds from the libraries were added in duplicate at three final concentrations of 10, 1 and 0.1 uM.
SMN detection was done on the automated confocal microscope Opera PerkinElmer with separate fluorescent exposures to 488 nM laser for and a UV light source to detect nuclei stained with Hoechst 33258 with a 20× objective.
After scanning on the Opera, an XML file extraction workflow, designed with Inforsense KDE, was used to assemble the data from multiple replicate plates of each HCS experiment including the quantitative parameters described above and chemical identities, chemical concentrations and indications of which wells were used for positive and negative controls. […] The fold-induction of SMN intensity values for each well treated with a library chemical were normalized to the SMN average intensity in multiple negative control wells per plate.
Since it is not known which form of SMN increase is the most essential, hits that scored in a duplicate at least in two different parameters greater than 1.3 fold at any of the three concentrations were selected (FIG. 19d). […] Further, 220 compounds were screened in the absence of anti-SMN primary antibody with the same assay conditions, to filter out the fluorescent compounds.
For the compound `COc1ccc(C[C@H]2NC[C@H](O)[C@H]2OC(C)=O)cc1` [Anysomycin], the “concentration at which SMN level was increased” value was 0.1 µM.

The same test, now with this note: human fibroblasts, 2-3 days with compound.
With `CC(C)[C@@H]1NC(=O)[C@H](C)OC(=O)[C@@H](C(C)C)NC(=O)[C@@H](C(C)C)OC(=O)[C@H](C(C)C)NC(=O)[C@H](C)OC(=O)[C@@H](C(C)C)NC(=O)[C@@H](C(C)C)OC(=O)[C@H](C(C)C)NC(=O)[C@H](C)OC(=O)[C@@H](C(C)C)NC(=O)[C@@H](C(C)C)OC1=O` [Valinomycin], the “SMN level in fibroblast screen (increase or decrease)” value (shortened to “SMN level … (increase or decrease)”) is on record as “increase SMN”. Still for that read-out and setting: the value for `C[C@H]1O[C@@H](O[C@H]2[C@@H](O)C[C@H](O[C@H]3[C@@H](O)C[C@H](O[C@H]4CC[C@@]5(C)[C@H](CC[C@@H]6[C@@H]5CC[C@]5(C)[C@@H](C7=CC(=O)OC7)CC[C@]65O)C4)O[C@@H]3C)O[C@@H]2C)C[C@H](O)[C@@H]1O` [Dititoxin] was “increase SMN”.

On to `COc1ccc(C[C@H]2NC[C@H](O)[C@H]2OC(C)=O)cc1` [Anysomycin], for which the “SMN level … (increase or decrease)” value is “increase SMN”.

Turning to `O=C(Nc1cc(C(F)(F)F)cc(C(F)(F)F)c1)c1cc(Cl)ccc1O` [IMD-0354], the “SMN level … (increase or decrease)” value is given as “SMN is increase”.

Take `C[C@H]1O[C@@H](O[C@H]2[C@@H](O)C[C@H](O[C@H]3[C@@H](O)C[C@H](O[C@H]4CC[C@@]5(C)[C@H](CC[C@@H]6[C@@H]5C[C@@H](O)[C@]5(C)[C@@H](C7=CC(=O)OC7)CC[C@]65O)C4)O[C@@H]3C)O[C@@H]2C)C[C@H](O)[C@@H]1O` [Digoxin]: the “SMN level … (increase or decrease)” value is reported as “increase SMN”. The same measure, in the same setting: to `CCCCC/C=C\C/C=C\C/C=C\C/C=C\CCCC(=O)NCCO` [Anandamide] belongs “increase SMN”; to `Clc1ccc2ncnc(NCc3ccc4c(c3)OCO4)c2c1` [MBCQ], “increase SMN”; to ceramide, “increase SMN”. On the same count and under the same terms, the value for `CC(C)C[C@@H](C=O)NC(=O)[C@H](CC(C)C)NC(=O)[C@H](CC(C)C)NC(=O)OCc1ccccc1` [MG-132] (Cbz-Leu-Leu-Leu-aldehyde) was “increase SMN”; that for `O=C(Nc1ccc([N+](=O)[O-])cc1Cl)c1cc(Cl)ccc1O` [Niclosamide] was “SMN is increase”.
